Some targets named below: Carbonic anhydrase 9 (Homo sapiens, UniProt Q16790); Carbonic anhydrase 2 (Homo sapiens, UniProt P00918); Carbonic anhydrase 1 (Homo sapiens, UniProt P00915); Carbonic anhydrase 12 (Homo sapiens, UniProt O43570).

What is called pKi is −log10 of the Ki, conventionally taken in molar units. The low end stands for a large Ki, the high end for a small Ki.

pKi: −log10 of the molar value.

Chain of Carbonic anhydrase 1 (P00915 whole entry): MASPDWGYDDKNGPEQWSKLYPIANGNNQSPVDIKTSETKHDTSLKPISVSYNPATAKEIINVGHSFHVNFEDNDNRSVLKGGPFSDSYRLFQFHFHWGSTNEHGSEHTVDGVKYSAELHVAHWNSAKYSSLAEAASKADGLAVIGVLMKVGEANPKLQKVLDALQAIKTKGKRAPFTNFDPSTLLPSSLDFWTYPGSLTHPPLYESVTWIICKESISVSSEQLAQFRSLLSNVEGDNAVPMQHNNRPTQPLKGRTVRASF
Chain of Carbonic anhydrase 12 (O43570 whole entry): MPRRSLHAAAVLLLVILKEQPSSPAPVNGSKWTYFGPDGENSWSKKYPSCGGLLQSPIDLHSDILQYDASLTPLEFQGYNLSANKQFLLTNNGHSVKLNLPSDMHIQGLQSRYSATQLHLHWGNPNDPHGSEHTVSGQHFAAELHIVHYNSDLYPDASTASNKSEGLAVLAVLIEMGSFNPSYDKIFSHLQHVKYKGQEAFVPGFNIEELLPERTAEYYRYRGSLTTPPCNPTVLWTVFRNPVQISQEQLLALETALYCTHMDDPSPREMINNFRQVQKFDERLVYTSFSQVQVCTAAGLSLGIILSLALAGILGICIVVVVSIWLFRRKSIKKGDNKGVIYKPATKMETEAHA

With `CC(=O)Nc1ccc(Nc2ccc(S(N)(=O)=O)cc2)cc1`, the pKi on Carbonic anhydrase 9 is 7.43.

With `CC(C)(C)C(=O)Nc1ccc(S(N)(=O)=O)cc1`, on Carbonic anhydrase 9, the pKi was 6.87.

On to `CC(C)C(=O)Nc1ccc(S(N)(=O)=O)cc1`, for which the pKi on Carbonic anhydrase 9 was 6.86.

Take `CCCC(=O)Nc1ccc(S(N)(=O)=O)cc1`: at Carbonic anhydrase 9, the pKi is 7.08.

As to `NS(=O)(=O)c1ccc(CCNC(=S)Nc2ccccc2)cc1`, the pKi on Carbonic anhydrase 2 was 7.28; on Carbonic anhydrase 1, 7.30; on Carbonic anhydrase 9, 7.68; on Carbonic anhydrase 12, 7.62.

Take `CCCCC(=O)Nc1ccc(S(N)(=O)=O)cc1`: the pKi at Carbonic anhydrase 9 was 7.10.

As for `NS(=O)(=O)c1ccc(CCNC(=S)Nc2ccc(S(N)(=O)=O)cc2)cc1`, the pKi is 8.40 at Carbonic anhydrase 2, 7.43 on Carbonic anhydrase 1 and 7.10 on Carbonic anhydrase 12.

Take `NS(=O)(=O)c1cccc(NC(=O)Nc2ccccc2)c1`: the pKi at Carbonic anhydrase 1 is 5.82; at Carbonic anhydrase 9 it was 7.85; at Carbonic anhydrase 12 it was 8.00.

`CC(=O)Nc1ccc(S(N)(=O)=O)cc1`: the pKi at Carbonic anhydrase 12 is 7.31.
